In ChEMBL document CHEMBL4665861, “Chemical constituents from Macleaya cordata (Willd) R. Br. and their phenotypic functions against a Parkinson's disease patient-derived cell line” (Bioorg Med Chem, 2020):
Active and inactive are the calls of the source. The calls are words filed in the database; no cut-off is given here.

Legend:
[1] = (§1) Induction of cytological phenotypic changes in cellular organelles in Parkinson's disease patient human ONS derived C1200080013 cells assessed as perturbation of auto-phagosomal features by measuring depletion in LC3b staining intensity at 30 uM incubated for 24 hrs by anti-LC3b1/335/DAPI staining based fluorescence microscopic analysis; assay type: tissue-based; conditions: c1200080013, 24 h
[2] = as §1, with “mitochondria” for “auto-phagosomal”, “reduction” for “depletion”, “MitoTracker” for “LC3b”, “MitoTrackerOrange CMTMRos/DAPI” for “anti-LC3b1/335/DAPI”; conditions: c1200080013, 24 h
[3] = as §1, with “early endosomal” for “auto-phagosomal”, “reduction” for “depletion”, “EEA1” for “LC3b”, “LysoTrackerRed DND-99/anti-EEA1” for “anti-LC3b1/335/DAPI”; assay type: tissue-based; conditions: c1200080013, 24 h
[4] = Induction of cytological phenotypic changes in cellular organelles in Parkinson's disease patient human ONS derived C1200080013 cells assessed as changes in features associated with early endosome antigen1 by measuring alteration in EEA1 staining intensity at 10 uM incubated for 24 hrs by LysoTrackerRed DND-99/anti-EEA1 staining based fluorescence microscopic analysis; conditions: c1200080013, 24 h
[5] = (§2) Induction of cytological phenotypic changes in cellular organelles in Parkinson's disease patient human ONS derived C1200080013 cells assessed as perturbation of mitochondria marker intensity in inner region of cytoplasm by measuring log2ratio at 30 uM incubated for 24 hrs by MitoTrackerOrange CMTMRos/DAPI staining based fluorescence microscopic analysis; assay type: functional
C1200080013 = assay: Induction of cytological phenotypic changes in cellular organelles in Parkinson's disease patient human ONS derived C1200080013 cells assessed as perturbation in mitochondrial features by measuring punctuate and fragmented mitochondrial morphology at 30 uM incubated for 24 hrs by MitoTrackerOrange CMTMRos/DAPI staining based fluorescence microscopic analysis; assay type: functional, cell-based
[6] = as §2, with “EEA1” for “mitochondria”, “in” for “in inner region of”, “LysoTrackerRed DND-99/anti-EEA1” for “MitoTrackerOrange CMTMRos/DAPI”; assay type: tissue-based; conditions: c1200080013, 24 h
[7] = Cytotoxicity against Parkinson's disease patient human ONS derived C1200080013 cells assessed as cell death at 30 uM incubated for 24 hrs; assay type: cell-based; conditions: c1200080013, 24 h
[8] = as §2, with “changes in” for “perturbation of”, “cytoplasm” for “cytoplasm by measuring log2ratio”, “20” for “30”; conditions: c1200080013, 24 h
[9] = as §2, with “auto-phagosomal LC3b” for “mitochondria”, “anti-LC3b1/335/DAPI” for “MitoTrackerOrange CMTMRos/DAPI”; assay type: tissue-based; conditions: c1200080013, 24 h

## COc1cc(/C=C/C(=O)O[C@@H]2C[C@](O)(C(=O)O)C[C@@H](O)[C@H]2O)ccc1O
[1]
  Activity: Non-Toxic
[2]
  Activity: Non-Toxic
[3]
  Activity: Non-Toxic

## CCN(CC)CCCC(C)Nc1ccnc2cc(Cl)ccc12 (configuration not stated) [CHLOROQUINE]
[1]
  Activity: Non-Toxic
[4]
  Activity: Toxic

## COc1ccc2c(c1OC)C(CO)N(C)c1c-2ccc2cc3c(cc12)OCO3 (configuration not stated)
[5]
  log(ratio): -0.85
C1200080013
  Activity: Active
[6]
  log(ratio): -0.73

## C[n+]1cc2c3c(ccc2c2ccc4cc5c(cc4c21)OCO5)OCO3 [SANGUINARIUM]
[7]
  Activity: Toxic

## COc1cc(/C=C/C(=O)O)ccc1O[C@@H]1O[C@H](CO)[C@@H](O)[C@H](O)[C@H]1O
[1]
  Activity: Non-Toxic
[2]
  Activity: Non-Toxic
[3]
  Activity: Non-Toxic

## COc1cc(OC)c2c(c[n+](C)c3c4cc5c(cc4ccc23)OCO5)c1OC
[7]
  Activity: Toxic

## C=C(C)[C@H]1Cc2c(ccc3c2O[C@@H]2COc4cc(OC)c(OC)cc4[C@@H]2C3=O)O1 [ROTENONE]
[8]
  Activity: Toxic

## COc1ccc2c(c[n+](C)c3c4cc5c(cc4ccc23)OCO5)c1OC [CHELERYTHRINE]
[7]
  Activity: Toxic

## COc1cc2c(c3c[n+](C)c4c5cc6c(cc5ccc4c13)OCO6)OCO2
[7]
  Activity: Toxic

## COc1ccc2c(c1OC)C(C(C)O)N(C)c1c-2ccc2cc3c(cc12)OCO3 (configuration not stated)
[9]
  log(ratio): -0.99
